Source: article PMC12073298, “Design, Synthesis, and Biological Evaluation of Naphthoquinone Salts as Anticancer Agents” (Molecules, 2025)
Read-outs that look alike come from different tables or passages of the source.

Assays:
[1] = test system: human endometrial cancer cells (HEC1A); conditions: previous study, cited from earlier work
[2] = test system: human endometrial cancer cells (HEC1A); assay: MTT cell viability assay, HEC1A cells; assay type: cell-based; conditions: for IC50: 48 h, HEC1A cells, MTT, n = 3 biological replicates, read-out: Mean IC50 (μM) HEC1A ± SD; for Selectivity Ratio: IC50 value from MAD11 cells divided by the IC50 value from HEC1A cells
Procedure: (§1) The cytotoxic effects of the synthesized salt compounds were assessed against human endometrial cancer cells (HEC1A) and normal endometrial stromal cells (MAD11) using the MTT cell viability assay. BH10 was used as the reference compound.
(§2) Reagents and equipment: phosphate-buffered saline (PBS) (Sigma Aldrich, St. Louis, MO, USA), 10× Trypsin-EDTA solution (Sigma Aldrich, 59418C), Dulbecco’s Modified Eagle’s Medium (Sigma Aldrich), foetal bovine serum (FBS), and 100× penicillin-streptomycin solution (Sigma Aldrich P4333). The MTT reagent was prepared by dissolving 5 mg/mL MTT powder in sterile PBS, followed by filtration, whereas the MTT solvent contained 4 mM HCl and 0.1% Nonidet P-40 in isopropanol. Dimethyl sulfoxide (DMSO) was also sourced from Sigma Aldrich. Absorbance measurements were acquired using Kaleido 1.0 software coupled with an EnSight™ HH3400 Multimode Plate Reader (PerkinElmer, Waltham, MA, USA). HEC-1-A endometrial cancer cells were obtained from ATCC, while MAD11 endometrial stromal cells were provided by Dr. Hui Li (University of Virginia). MAD11 cells, derived from non-cancerous donors, were immortalized via human telomerase reverse transcriptase (hTERT).
(§3) Method: The methods were adapted from Byrne et al. (2014). Cells were cultured in DMEM supplemented with 10% FBS and 1% Pen-Strep solution (100 U/mL penicillin and 0.1 mg/mL streptomycin). Upon reaching ~70% confluence, the cells were washed with sterile PBS and detached using a 1× trypsin-EDTA solution. The cells were then resuspended in culture media, counted, and seeded into sterile 96-well tissue culture plates (2500 cells per well for MAD11; 5000 cells per well for HEC-1-A). The cells were incubated at 37 °C with 5% CO2 for 24 h prior to drug treatment. Drugs were serially diluted in culture medium to final concentrations of 100, 50, 25, 12.5, 6.3, 3.1, 1.6, and 0.8 µM per well and applied in triplicate. For compounds 7a–f and 15, as their IC₅₀ values were below 0.8 µM, an additional set of three biological replicates was conducted using a lower concentration range (500, 250, 125, 63, 31, 16, 8, and 4 nM). To minimize variations due to DMSO (vehicle), both drug dilutions and control wells received the same final concentration of DMSO. After 48 h of incubation at 37 °C with 5% CO2, cell viability was assessed by adding 20 µL/well of MTT reagent for 3 h. Supernatants were aspirated, and formazan crystals were dissolved in MTT solvent before absorbance was measured at 590/620 nm using an EnSight™ HH3400 Multimode Plate Reader. Cell viability was expressed as a percentage of the vehicle (DMSO-treated) control, with results reported as mean ± SEM from three independent experiments. IC50 values were determined using GraphPad Prism 9.

[3] = test system: normal endometrial stromal cells (MAD11); assay: MTT cell viability assay, MAD11 cells; assay type: cell-based, human; conditions: MAD11 non-cancerous cells, n = 3 biological replicates, read-out: Mean IC50 (μM) MAD11 ± SD
Procedure: as §1, §2, §3

[4] = cell line not printed here, read-out: IC50 (anticancer potency of starting materials)
[5] = non-salt parent compounds, read-out: IC50 of parent naphthoimidazole analogues

Row | Structure (SMILES) | IC50 ([2]; Homo sapiens, HEC-1-A) | Selectivity Ratio [2] | IC50 ([3]; Homo sapiens, MAD11, 48 h) | further results
1 | O=C1C=C(NCCN2CCOCC2)C(=O)c2ccccc21 [Compound 1a] | – | – | – | IC50 [1, 4]: > 40 µM
2 | CC1=C(NCCN2CCOCC2)C(=O)c2ccccc2C1=O [Compound 1h] | – | – | – | IC50 [1, 4]: > 40 µM
3 | C[N+]1(CCCNC2=CC(=O)c3ccccc3C2=O)CCCCC1 [Compound 2b, 1-(3-((1,4-Dioxo-1,4-dihydronaphthalen-2-yl)amino)propyl)-1-methylpiperidin-1-ium iodide] | > 100 µM | – | > 100 µM | –
4 | C[N+](C)(C)CCCNC1=C(Cl)C(=O)c2ccccc2C1=O [Compound 2e, 3-((3-Chloro-1,4-dioxo-1,4-dihydronaphthalen-2-yl)amino)-N,N,N-trimethylpropan-1-aminium iodide] | > 100 µM | – | > 100 µM | –
5 | C[N+]1(CCNC2=C(Br)C(=O)c3ccccc3C2=O)CCOCC1.[I-] [Compound 2g, 4-(2-((3-Bromo-1,4-dioxo-1,4-dihydronaphthalen-2-yl)amino)ethyl)-4-methylmorpholin-4-ium iodide] | 23.8 ± 4.17 µM | >4.20 | > 100 µM | –
6 | Cc1n(C)c2c([n+]1C)C(=O)c1ccncc1C2=O.[Br-] [Compound 7f, 1,2,3-Trimethyl-4,9-dioxo-4,9-dihydro-3H-imidazo [4,5-g]isoquinolin-1-ium bromide] | 0.472 ± 0.0378 µM | 10.16 | 4.8 ± 0.327 µM | loss in potency relative to 7a ([2]; Figure 3, SAR summary): ~ 50 fold
7 | Cc1n(C)c2ccccc2[n+]1C [Compound 11, 1,2,3-Trimethyl-1H-benzo[d]imidazol-3-ium iodide] | > 100 µM | – | > 100 µM | –
8 | Cc1n(C)c2c([n+]1C)C(=O)c1ccccc1C2=O.[I-] [Compound 15, 1,2,3-Trimethyl-4,9-dioxo-4,9-dihydro-1H-naphtho [2,3-d]imidazol-3-ium iodide] | – | 11.43 | – | IC50 [2]: 0.0135 ± 0.0009 µM; IC50 ([3]; 48 h): 0.154 ± 0.0109 µM
9 | O=C1c2ccccc2C(=O)c2c1nc(C(F)(F)F)n2Cc1cn(CCN2CCOCC2)nn1 [Compound 16a] | – | – | – | selectivity of parent naphthoimidazole analogues ([1]; non-salt parent compounds): 1.73; IC50 [1, 5]: 18.1 µM
10 | O=C1c2ccccc2C(=O)c2c1nc(C(F)(F)F)n2Cc1cn(CCN2CCCCC2)nn1 [Compound 16b] | – | – | – | selectivity of parent naphthoimidazole analogues ([1]; non-salt parent compounds): 2.01
11 | O=C1c2ccccc2C(=O)c2c1nc(C(F)(F)F)n2Cc1cn(CCCN2CCCCC2)nn1 [Compound 16c] | – | – | – | selectivity of parent naphthoimidazole analogues ([1]; non-salt parent compounds): 2.77; IC50 [1, 5]: 2.6 µM
12 | C[N+]1(CCn2cc(Cn3c(C(F)(F)F)nc4c3C(=O)c3ccccc3C4=O)nn2)CCCCC1.[I-] [Compound 17b, 1-(2-(4-((4,9-Dioxo-2-(trifluoromethyl)-4,9-dihydro-1H-naphtho [2,3-d]imidazol-1-yl)methyl)-1H-1,2,3-triazol-1-yl)ethyl)-1-methylpiperidin-1-ium iodide] | 6.79 ± 1 µM | >14.73 | > 100 µM | –
13 | C[N+]1(CCCn2cc(Cn3c(C(F)(F)F)nc4c3C(=O)c3ccccc3C4=O)nn2)CCCCC1.[I-] [Compound 17c, 1-(3-(4-((4,9-Dioxo-2-(trifluoromethyl)-4,9-dihydro-1H-naphtho [2,3-d]imidazol-1-yl)methyl)-1H-1,2,3-triazol-1-yl)propyl)-1-methylpiperidin-1-ium iodide] | 5.62 ± 1.43 µM | >17.79 | > 100 µM | –
14 | Cc1nc2c(n1CCCN1CCCCC1)C(=O)c1ccccc1C2=O [Compound 18] | – | – | – | selectivity of parent naphthoimidazole analogues ([1]; non-salt parent compounds): 3.59; IC50 [1, 5]: 6.4 µM
15 | Cc1nc2c(n1CCC[N+]1(C)CCCCC1)C(=O)c1ccccc1C2=O.[I-] [Compound 19, 1-Methyl-1-(3-(2-methyl-4,9-dioxo-4,9-dihydro-1H-naphtho [2,3-d]imidazol-1-yl)propyl) piperidin-1-ium iodide] | 6.35 ± 1.41 µM | 6.42 | 40.8 ± 14.1 µM | –

Continued, in another order:

Row | IC50 ([2]; Homo sapiens, HEC-1-A) | Structure (SMILES) | Selectivity Ratio [2] | IC50 ([3]; Homo sapiens, MAD11, 48 h) | further results
16 | 21.1 ± 2.99 µM | C[N+]1(CCNC2=CC(=O)c3ccccc3C2=O)CCOCC1.[I-] [Compound 2a, 4-(2-((1,4-Dioxo-1,4-dihydronaphthalen-2-yl)amino)ethyl)-4-methylmorpholin-4-ium iodide] | >4.73 | > 100 µM | –
17 | 97.2 ± 8.2 µM | C[N+](C)(C)CCNC1=C(Cl)C(=O)c2ccccc2C1=O [Compound 2c, 2-((3-Chloro-1,4-dioxo-1,4-dihydronaphthalen-2-yl)amino)-N,N,N-trimethylethan-1-aminium iodide] | – | > 100 µM | –
18 | 58.8 ± 3.01 µM | C[N+]1(CCNC2=C(Cl)C(=O)c3ccccc3C2=O)CCCCC1.[I-] [Compound 2d, 1-(2-((3-Chloro-1,4-dioxo-1,4-dihydronaphthalen-2-yl)amino)ethyl)-1-methylpiperidin-1-ium iodide] | >1.70 | > 100 µM | –
19 | > 100 µM | C[N+]1(CCCNC2=C(Cl)C(=O)c3ccccc3C2=O)CCOCC1 [Compound 2f, 4-(3-((3-Chloro-1,4-dioxo-1,4-dihydronaphthalen-2-yl)amino)propyl)-4-methylmorpholin-4-ium iodide] | – | > 100 µM | –
20 | 95.5 ± 14.7 µM | CC1=C(NCC[N+]2(C)CCOCC2)C(=O)c2ccccc2C1=O [Compound 2h, 4-Methyl-4-(2-((3-methyl-1,4-dioxo-1,4-dihydronaphthalen-2-yl)amino)ethyl)morpholin-4-ium iodide] | – | > 100 µM | –
21 | 0.00953 ± 0.0007 µM | Cc1n(C)c2c([n+]1C)C(=O)c1ccccc1C2=O.[Br-] [Compound 7a, 1,2,3-Trimethyl-4,9-dioxo-4,9-dihydro-1H-naphtho [2,3-d]imidazol-3-ium bromide] | 6.89 | – | IC50 ([3]; 48 h): 0.0657 ± 0.00641 µM
22 | 0.023 ± 0.0033 µM | Cc1n(C)c2c([n+]1C)C(=O)c1c(cccc1[N+](=O)[O-])C2=O.[Br-] [Compound 7b, 1,2,3-Trimethyl-5-nitro-4,9-dioxo-4,9-dihydro-1H-naphtho [2,3-d]imidazol-3-ium bromide] | 41.43 | 0.952 ± 0.215 µM | –
23 | 0.0288 ± 0.0014 µM | Cc1n(C)c2c([n+]1C)C(=O)c1cc([N+](=O)[O-])ccc1C2=O.[Br-] [Compound 7c, 1,2,3-Trimethyl-6-nitro-4,9-dioxo-4,9-dihydro-1H-naphtho [2,3-d]imidazol-3-ium bromide] | 2.37 | 0.0685 ± 0.0061 µM | –
24 | 0.0256 ± 0.0021 µM | COc1ccc2c(c1)C(=O)c1c(n(C)c(C)[n+]1C)C2=O [Compound 7d, 6-Methoxy-1,2,3-trimethyl-4,9-dioxo-4,9-dihydro-1H-naphtho [2,3-d]imidazol-3-ium bromide] | – | 0.194 ± 0.0191 µM | –
25 | 0.0149 ± 0.0012 µM | Cc1ccc2c(c1)C(=O)c1c([n+](C)c(C)n1C)C2=O [Compound 7e, 1,2,3,7-Tetramethyl-4,9-dioxo-4,9-dihydro-1H-naphtho [2,3-d]imidazol-3-ium bromide] | – | 0.101 ± 0.0124 µM | –
26 | 24.9 µM | Cc1n(C)c2cc3ccccc3cc2[n+]1C.[I-] [Compound 9, 1,2,3-Trimethyl-1H-naphtho [2,3-d]imidazol-3-ium iodide] | 2.70 | 64.6 ± 14 µM | IC50 [2]: 23.9 ± 2.97 µM
27 | > 100 µM | Cn1c[n+](C)c2ccccc21 [Compound 13, 1,3-Dimethyl-1H-benzo[d]imidazol-3-ium iodide] | – | > 100 µM | –
28 | 11.2 ± 2.63 µM | C[N+]1(CCn2cc(Cn3c(C(F)(F)F)nc4c3C(=O)c3ccccc3C4=O)nn2)CCOCC1.[I-] [Compound 17a, 4-(2-(4-((4,9-Dioxo-2-(trifluoromethyl)-4,9-dihydro-1H-naphtho [2,3-d]imidazol-1-yl)methyl)-1H-1,2,3-triazol-1-yl)ethyl)-4-methylmorpholin-4-ium iodide] | 9.93 | 111 ± 45 µM | –
